Here are results for 3 compounds from ChEMBL document CHEMBL3611975, “New carbocyclic N(6)-substituted adenine and pyrimidine nucleoside analogues with a bicyclo[2.2.1]heptane fragment as sugar moiety; synthesis, antiviral, anticancer activity and X-ray crystallography” (Bioorg Med Chem, 2015).

The subject of data set [1] is Influenza A virus. The data set is described as follows: Antiviral activity against Influenza A virus (A/Puerto Rico/8/1934(H1N1)) infected in MDCK cells assessed as decrease in virus titer after 48 hrs by MTT assay. The class given is functional, organism-based. (In general: Tetrazolium dyes change colour on reduction, which living cells bring about.)
The nature of data set [2]: Selectivity index, ratio of CTD50 for MDCK cells to EC50 for Influenza A virus (A/Puerto Rico/8/1934(H1N1)). It counts as toxicity, cell-based. The conditions noted are these: dog.
Data set [3] in a line: Selectivity index, ratio of CTD50 for African green monkey Vero cells to EC50 for Human coxsackievirus B4 Powers. The class given is toxicity, cell-based.
Data set [4] concerns HL-60(TB). The data set is described as follows: Cytotoxicity against human HL-60(TB) cells assessed as growth inhibition at 10^-5 M relative to control. It counts as functional. The conditions noted are these: read-out: GI.
The test system of data set [5] is PC-3. The data set is described as follows: Cytotoxicity against human PC3 cells assessed as growth at 10^-5 M relative to control.
In data set [6] the test system is KM12. The data set is described as follows: Cytotoxicity against human KM12 cells assessed as growth at 10^-5 M relative to control.
Data set [7] deals with U-251. The data set is described as follows: Cytotoxicity against human U251 cells assessed as growth at 10^-5 M relative to control.
The test system of data set [8] is MCF7. The data set is described as follows: Cytotoxicity against human MCF7 cells assessed as growth at 10^-5 M relative to control.
Data set [9] concerns HCT-15. The data set is described as follows: Cytotoxicity against human HCT15 cells assessed as growth at 10^-5 M relative to control.
The test system of data set [10] is SW-620. The data set is described as follows: Cytotoxicity against human SW620 cells assessed as growth at 10^-5 M relative to control.
The test system of data set [11] is SN12C. Put plainly: Cytotoxicity against human SN12C cells assessed as growth at 10^-5 M relative to control.
The subject of data set [12] is BT-549. The data set is described as follows: Cytotoxicity against human BT549 cells assessed as growth at 10^-5 M relative to control.
Data set [13] has as its system IGROV-1. Put plainly: Cytotoxicity against human IGROV1 cells assessed as growth at 10^-5 M relative to control.
For data set [14], the system named is OVCAR-3. The data set is described as follows: Cytotoxicity against human OVCAR3 cells assessed as growth at 10^-5 M relative to control.
For data set [15], the system named is CCRF-CEM. The data set is described as follows: Cytotoxicity against human CCRF-CEM cells assessed as growth at 10^-5 M relative to control.
Data set [16] has as its system NCI-H322M. The data set is described as follows: Cytotoxicity against human NCI-H322M cells assessed as growth at 10^-5 M relative to control.
The subject of data set [17] is MDA-MB-435. The data set is described as follows: Cytotoxicity against human MDA-MB-435 cells assessed as growth at 10^-5 M relative to control.
For data set [18], the system named is MDA-MB-231. The data set is described as follows: Cytotoxicity against human MDA-MB-231 cells assessed as growth at 10^-5 M relative to control.
Data set [19] concerns MDA-MB-468. The data set is described as follows: Cytotoxicity against human MDA-MB-468 cells assessed as growth at 10^-5 M relative to control.
Data set [20] can be described thus: Cytotoxicity against human EKVX cells assessed as growth at 10^-5 M relative to control.
Data set [21] deals with SF-295. The data set is described as follows: Cytotoxicity against human SF295 cells assessed as growth at 10^-5 M relative to control.
The nature of data set [22]: Cytotoxicity against human Hs578T cells assessed as growth at 10^-5 M relative to control. The conditions noted are these: Hs-578T.
The subject of data set [23] is NCI-H226. The data set is described as follows: Cytotoxicity against human NCI-H226 cells assessed as growth at 10^-5 M relative to control.
Data set [24] concerns NCI-H522. Put plainly: Cytotoxicity against human NCI-H522 cells assessed as growth at 10^-5 M relative to control.

For the compound `OC[C@H]1[C@@H]2C[C@H](n3cnc4c(NCCc5ccccc5)ncnc43)[C@H]1C[C@@H]2Cl`, in data set [1], the EC50 was found to be 15 µM. Also, the results for the selectivity ratio in [2] and in data set [3] were 10 and 3, respectively. In addition, the inhibition of growth at 10 µM in data set [4] came to 120%. The growth, % of control at 10 µM was 89.1% in [5]; 102% in data set [6]; 103% in data set [7]; 89.9% in data set [8]; 81.7% in [9]; 99.7% in data set [10]. Further, the growth, % of control at 10 µM in [11] was 99.9%; in data set [12], 96.1%; in data set [13], 105%; in [14], 110%; in data set [15], 87.6%; in [16] it was 99.5%. For the same compound, the growth, % of control at 10 µM in data set [17] amounted to 99.7%; in data set [18], 104%; in data set [19] it was 89.4%.

In the case of `COc1ccc(CCNc2ncnc3c2ncn3[C@H]2C[C@H]3[C@H](CO)[C@@H]2C[C@@H]3Cl)cc1`, the concentration giving a half-maximal response (EC50) in data set [1] turned out to be 16 µM. Further, the selectivity ratio in [2] is 22; in data set [3], 1. The inhibition of growth at 10 µM in data set [4] turned out to be 94.7%. The growth, % of control at 10 µM in [5] was found to be 102%; in data set [20], 100%; in [6] it was 97%; in data set [7], 105%; in [8], 94.1%; in data set [9], 95.5%. The growth, % of control at 10 µM in [10] came to 108%; in [21], 104%; in data set [11], 102%; in data set [12], 86.8%; in data set [13] it was 98.7%; in data set [14], 111%. Further, the growth, % of control at 10 µM in data set [22] stood at 93.6%; in [15] it was 108%; in [23] it was 102%; in data set [24], 56.7%; in data set [16] it was 89.2%; in data set [17] it was 114%. For the same compound, the growth, % of control at 10 µM in data set [18] came out at 100%; in [19] it was 101%.

In the case of `CCOc1ncnc2c1ncn2[C@H]1C[C@H]2[C@H](CO)[C@@H]1C[C@@H]2Cl`, in [1], the EC50 turned out to be 225 µM. The selectivity ratio in data set [2] is > 5; in data set [3], 2. Moreover, the inhibition of growth at 10 µM in [4] came out at 95.4%. Further, the growth, % of control at 10 µM in data set [5] amounted to 104%; in [20], 95.8%; in data set [6] it was 101%; in data set [7], 102%; in [8] it was 95.2%; in [9] it was 95.7%. For the same compound, the growth, % of control at 10 µM worked out at 109% in [10]; 108% in [21]; 108% in data set [11]; 106% in data set [12]; 95.4% in [13]; 111% in data set [14]. Besides, the growth, % of control at 10 µM came to 108% in [22]; 129% in data set [15]; 94.5% in data set [23]; 92.4% in [24]; 89.9% in data set [16]; 106% in data set [17]. The growth, % of control at 10 µM in [18] came out at 97.9%; in data set [19] it was 98.6%.

In general, EC50 refers to the concentration at which the effect is half-maximal.
